tested on: AMP-activated protein kinase (AMPK); assay: ADP Quest assay for AMPK activators; type: biochemical; design: key: fold AMPK activation at 30 μM activator vs none; conditions: fold of AMPK activation to phosphorylate SAMS peptide without and with an activator at the concentration of 30 μM
Experimental: This method evaluates AMP-activated protein kinase (AMPK) activity through detecting the accumulation of ADP product using an ADP Quest kit and determining the E30 values of the small molecular AMPK activators. ADP Quest kit (DiscoveRx, Fremont, Calif.) is stored at −20° C. before use. Before an experiment, thaw the kit (include assay buffer, ADP standard solution, reagent A and reagent B) and equilibrate to room temperature. Dispense the ADP Quest reagents into single-use aliquots and store at −20° C. The compound concentrations typically range from 0 μM to 100 μM by 2-fold dilution. AMP concentrations range from 0.98 μM to 1 mM as the reference control. In an assay, thaw and equilibrate the assay buffer, reagent A and reagent B to room temperature for 30 minutes prior to use. Mix ATP, SAMS peptide substrate and compound, and place them into the 384-well assay plate. Add reagent A and B based on the assay kit protocol. Incubate the assay plate at room temperature for 30 minutes after addition the mixture followed by the addition of AMPK protein (Invitrogen, CA) to initiate the AMPK phosphorylation reaction. At the same time, reactions with AMPK activator AMP in the absence of enzyme is included as blank control. The reaction fluorescence signal is monitored and recorded on Envision in kinetic mode with the excitation wavelength of 530 nm and emission wavelength of 590 nm. The E30 value, defined as the fold of AMPK activation to phosphorylate SAMS peptide without and with an activator at the concentration of 30 μM, is calculated and analyzed using Prism 5.0.

Structure (SMILES) | E30
CC1(C)CC(c2ccccc2NS(C)(=O)=O)Nc2ccc(C#N)cc21 (centres unmarked) [Example-23, N-[2-(6-Cyano-4,4-dimethyl-1,2,3,4-tetrahydro-quinolin-2-yl)-phenyl]-methanesulfonamide] | 1.14
CC1(C)CC(c2ccccc2NS(=O)(=O)c2cccc(F)c2)Nc2ccc(C(F)(F)F)cc21 (centres unmarked) [Example-43, N-[2-(4,4-Dimethyl-6-trifluoromethyl-1,2,3,4-tetrahydro-quinolin-2-yl)-phenyl]-3-fluoro-benzenesulfonamide] | 1.14
CC1(C)CC(c2cccc(NC3(C(=O)O)CC3)c2)Nc2ccc(C(F)(F)F)cc21 (centres unmarked) [Example-17, 1-[3-(4,4-Dimethyl-6-trifluoromethyl-1,2,3,4-tetrahydro-quinolin-2-yl)-phenylamino]-cyclopropanecarboxylic acid] | 1.91
CC1(C)CC(c2ccccc2NS(=O)(=O)c2cccnc2)Nc2ccc(C(=O)O)cc21 (centres unmarked) [Example-34, 4,4-Dimethyl-2-[2-(pyridine-3-sulfonylamino)-phenyl]-1,2,3,4-tetrahydro-quinoline-6-carboxylic acid] | 2.39
Cc1cc(C#N)cc2c1NC(c1cccc(NC3(C(=O)O)CC3)c1)CC2(C)C (centres unmarked) [Example-8, 1-[3-(6-Cyano-4,4,8-trimethyl-1,2,3,4-tetrahydro-quinolin-2-yl)-phenylamino]-cyclopropanecarboxylic acid] | 1.68
CC(C)(Nc1ccccc1C1CC(C)(C)c2cc(C#N)ccc2N1)C(=O)O (centres unmarked) [Example-20, 2-[2-(6-Cyano-4,4-dimethyl-1,2,3,4-tetrahydro-quinolin-2-yl)-phenylamino]-2-methyl-propionic acid] | 1.57
CCS(=O)(=O)Nc1ccccc1C1CC(C)(C)c2cc(C(F)(F)F)ccc2N1 (centres unmarked) [Example-46, Ethanesulfonic acid [2-(4,4-dimethyl-6-trifluoromethyl-1,2,3,4-tetrahydro-quinolin-2-yl)-phenyl]-amide] | 1.20
CC1(C)CC(c2ccccc2NC2(C(=O)O)CC2)Nc2ccc(C#N)cc21 (centres unmarked) [Example-25, 1-[2-(6-Cyano-4,4-dimethyl-1,2,3,4-tetrahydro-quinolin-2-yl)-phenylamino]-cyclopropanecarboxylic acid] | 2.02
CC(C)(Nc1cccc(C2CC(C)(C)c3cccc(C(=O)O)c3N2)c1)C(=O)O (centres unmarked) [Example-15, 2-[3-(1-Carboxy-1-methyl-ethylamino)-phenyl]-4,4-dimethyl-1,2,3,4-tetrahydro-quinoline-8-carboxylic acid] | 1.88
CN1c2ccc(C#N)cc2C(C)(C)CC1c1cccc(NC(C)(C)C(=O)O)c1 (centres unmarked) [Example-24, 2-[3-(6-Cyano-1,4,4-trimethyl-1,2,3,4-tetrahydro-quinolin-2-yl)-phenylamino]-2-methyl-propionic acid] | 3.22
CC1(C)CC(c2ccccc2NC(=O)c2cccc(F)c2)Nc2ccc(C(=O)O)cc21 (centres unmarked) [Example-37, 2-[2-(3-Fluoro-benzoylamino)-phenyl]-4,4-dimethyl-1,2,3,4-tetrahydro-quinoline-6-carboxylic acid] | 1.20
CC1(C)CC(c2ccccc2NS(=O)(=O)c2ccccc2F)Nc2ccc(C(=O)O)cc21 (centres unmarked) [Example-39, 2-[2-(2-Fluoro-benzenesulfonylamino)-phenyl]-4,4-dimethyl-1,2,3,4-tetrahydro-quinoline-6-carboxylic acid] | 2.69
CC1(C)CC(c2ccccc2NS(=O)(=O)c2ccc(F)cc2)Nc2ccc(C(F)(F)F)cc21 (centres unmarked) [Example-45, N-[2-(4,4-Dimethyl-6-trifluoromethyl-1,2,3,4-tetrahydro-quinolin-2-yl)-phenyl]-4-fluoro-benzenesulfonamide] | 1.15
Cc1cc(C#N)cc2c1NC(c1cccc(NC(C)(C)C(=O)O)c1)CC2(C)C (centres unmarked) [Example-12, 2-[3-(6-Cyano-4,4,8-trimethyl-1,2,3,4-tetrahydro-quinolin-2-yl)-phenylamino]-2-methyl-propionic acid] | 2.37
CCS(=O)(=O)Nc1ccccc1C1CC(C)(C)c2cc(Cl)ccc2N1 (centres unmarked) [Example-16, Ethanesulfonic acid [2-(6-chloro-4,4-dimethyl-1,2,3,4-tetrahydro-quinolin-2-yl)-phenyl]-amide] | 1.89
Cc1cc(F)cc2c1NC(c1cccc(NC(C)(C)C(=O)O)c1)CC2(C)C (centres unmarked) [Example-31, 2-[3-(6-Fluoro-4,4,8-trimethyl-1,2,3,4-tetrahydro-quinolin-2-yl)-phenylamino]-2-methyl-propionic acid] | 2.16
CC(C)(Nc1cccc(C2CC(C)(C)c3cc(C#N)ccc3N2)c1)C(=O)O (centres unmarked) [Example-3, 2-[3-(6-Cyano-4,4-dimethyl-1,2,3,4-tetrahydro-quinolin-2-yl)-phenylamino]-2-methyl-propionic acid] | 2.88
CC1(C)CC(c2cccc(NC3(C(=O)O)CC3)c2)Nc2c(Cl)cc(C#N)cc21 (centres unmarked) [Example-18, 1-[3-(8-Chloro-6-cyano-4,4-dimethyl-1,2,3,4-tetrahydro-quinolin-2-yl)-phenylamino]-cyclopropanecarboxylic acid] | 1.79

The remaining lines, values ahead:

E30 | Structure (SMILES)
3.30 | CC(C)(Nc1cccc(C2CC(C)(C)c3cc(Cl)ccc3N2)c1)C(=O)O (centres unmarked) [Example 1, 2-[3-(6-Chloro-4,4-dimethyl-1,2,3,4-tetrahydro-quinolin-2-yl)-phenylamino]-2-methyl-propionic acid]
1.70 | CC1(C)CC(c2ccccc2NS(C)(=O)=O)Nc2ccc(Cl)cc21 (centres unmarked) [Example-10, N-[2-(6-Chloro-4,4-dimethyl-1,2,3,4-tetrahydro-quinolin-2-yl)-phenyl]-methanesulfonamide]
1.23 | CC1(C)CC(c2ccccc2NC(=O)c2ccccc2F)Nc2ccc(C(=O)O)cc21 (centres unmarked) [Example-35, 2-[2-(2-Fluoro-benzoylamino)-phenyl]-4,4-dimethyl-1,2,3,4-tetrahydro-quinoline-6-carboxylic acid]
1.64 | CC1(C)CC(c2ccccc2NS(=O)(=O)c2ccc(F)cc2)Nc2ccc(Cl)cc21 (centres unmarked) [Example-19, N-[2-(6-Chloro-4,4-dimethyl-1,2,3,4-tetrahydro-quinolin-2-yl)-phenyl]-4-fluoro-benzenesulfonamide]
2.72 | CC1(C)CC(c2cccc(NC3(C(=O)O)CC3)c2)Nc2c(C(=O)O)cc(Cl)cc21 (centres unmarked) [Example-6, 2-[3-(1-Carboxy-cyclopropylamino)-phenyl]-6-chloro-4,4-dimethyl-1,2,3,4-tetrahydro-quinoline-8-carboxylic acid]
2.41 | CC1(C)CC(c2ccccc2NS(=O)(=O)c2cccc(F)c2)Nc2ccc(C(=O)O)cc21 (centres unmarked) [Example-42, 2-[2-(3-Fluoro-benzenesulfonylamino)-phenyl]-4,4-dimethyl-1,2,3,4-tetrahydro-quinoline-6-carboxylic acid]
1.34 | CC1(C)CC(c2ccccc2NS(=O)(=O)c2cccnc2)Nc2ccc(Cl)cc21 (centres unmarked) [Example-36, Pyridine-3-sulfonic acid [2-(6-chloro-4,4-dimethyl-1,2,3,4-tetrahydro-quinolin-2-yl)-phenyl]-amide]
1.26 | CC(C)(Nc1ccccc1C1CC(C)(C)c2cc(Cl)ccc2N1)C(=O)O (centres unmarked) [Example-26, 2-[2-(6-Chloro-4,4-dimethyl-1,2,3,4-tetrahydro-quinolin-2-yl)-phenylamino]-2-methyl-propionic acid]

From patent US8546427B2, “Tetrahydroquinoline derivatives” (Hoffmann-La Roche Inc., priority 2010, dated 2013)
